Patent US9365523B2, “Imidazolyl amide compounds and uses related thereto” (priority 2011, dated 2016)
pEC50: −log10 of the molar value.

Tested on: MeV-Alaska
Experiment: Viral CPE-reduction assay
Settings: Measles morbillivirus, read-out: EC50, suppression of viral cytopathic effect (CPE), CPE

| SMILES | pEC50 |
| --- | --- |
| Cc1ccc(NC(=O)C(C)Sc2nc3ccccc3n2-c2cccc(CO)c2)c(Cl)c1 (centres unmarked) [drawing 230] | 6.15 |
| Cc1ccc(NC(=O)C(C)Sc2nc3ccccc3n2-c2cccc(CCN3CCCCC3)c2)c(Cl)c1 (centres unmarked) | 5.82 |
| Cc1ccc(NC(=O)C(C)Sc2nc3ccccc3n2-c2cccc(CCN(C)C)c2)c(Cl)c1 (centres unmarked) | 5.91 |
| Cc1ccc(NC(=O)C(C)Sc2nc3ccccc3n2CC2CCN(C(=O)OC(C)(C)C)CC2)c(Cl)c1 (centres unmarked) | 5.88 |
| CCN1CCCC1Cn1c(SC(C)C(=O)Nc2ccc(C)cc2Cl)nc2ccccc21 (centres unmarked) [drawing 214] | 5.45 |
| Cc1ccc(NC(=O)C(C)Sc2nc3ccccc3n2CCN2CCOCC2)c(Cl)c1 (centres unmarked) | 5.31 |
| Cc1ccc(NC(=O)C(C)Sc2nc3ccccc3n2CC2CCN(C(C)c3ccc(F)cc3)CC2)c(Cl)c1 (centres unmarked) | 5.93 |
| CNCCc1ccc(-n2c(SC(C)C(=O)Nc3ccc(C)cc3Cl)nc3ccccc32)cc1 (centres unmarked) [drawing 226] | 5.06 |
| CC(Sc1nc2ccccc2n1-c1ccc(CC=O)cc1)C(=O)Nc1ccccc1Cl (centres unmarked) | 4.73 |
| Cc1ccc(NC(=O)C(C)Sc2nc3ccccc3n2-c2cccc(CN3CCN(C)CC3)c2)c(Cl)c1 (centres unmarked) [drawing 252] | 5.89 |
| Cc1ccc(NC(=O)C(C)Sc2nc3ccccc3n2N2CCN(C)CC2)c(Cl)c1 (centres unmarked) | < 4.12 |
| COCCN1CCCC(n2c(SC(C)C(=O)Nc3ccc(C)cc3Cl)nc3ccccc32)C1 (centres unmarked) | 6.00 |
| Cc1ccc(NC(=O)C(C)Sc2nc3ccccc3n2-c2ccc(CCNCCN3CCOCC3)cc2)c(Cl)c1 (centres unmarked) | 5.72 |
| Cc1ccc(NC(=O)C(C)Sc2nc3ccccc3n2-c2ccccc2CO)c(Cl)c1 (centres unmarked) | 6.10 |
| Cc1ccc(NC(=O)C(C)Sc2nc3ccccc3n2C2CCN(C)CC2)c(Cl)c1 (centres unmarked) [drawing 218] | 5.82 |
| Cc1ccc(NC(=O)C(C)Sc2nc3ccccc3n2CCN2CCNCC2)c(Cl)c1 (centres unmarked) | < 4.12 |
| Cc1ccc(NC(=O)C(C)Sc2nc3ccccc3n2-c2ccc(CCNC3CCN(C(=O)OC(C)(C)C)CC3)cc2)c(Cl)c1 (centres unmarked) | 5.33 |

| SMILES | pEC50 |
| --- | --- |
| CCN1CCC(Cn2c(SC(C)C(=O)Nc3ccc(C)cc3Cl)nc3ccccc32)CC1 (centres unmarked) | < 4.12 |
| Cc1ccc(NC(=O)C(C)Sc2nc3ccccc3n2C2CCNCC2)c(Cl)c1 (centres unmarked) [drawing 219] | < 4.12 |
| COc1ccc(-n2c(SC(CCO)C(=O)Nc3ccccc3)nc3ccccc32)cc1 (centres unmarked) | 4.56 |
| Cc1ccc(NC(=O)C(C)Sc2nc3ccccc3n2[C@H]2CCCC[C@@H]2O)c(Cl)c1 (some centres unmarked) | 6.06 |
| CC(Sc1nc2ccccc2n1-c1ccc(CCO)cc1)C(=O)Nc1ccccc1Cl (centres unmarked) | 5.33 |
| Cc1ccc(NC(=O)C(C)Sc2nc3ccccc3n2-c2cccc(CCN3CCCC3)c2)c(Cl)c1 (centres unmarked) | 5.78 |
| CCN1CCN(CCn2c(SC(C)C(=O)Nc3ccc(C)cc3Cl)nc3ccccc32)CC1 (centres unmarked) | 4.73 |
| Cc1ccc(NC(=O)C(C)Sc2nc3ccccc3n2-c2ccc(N3CCOCC3)cc2)c(Cl)c1 (centres unmarked) [drawing 232] | 6.52 |
| Cc1ccc(NC(=O)C(C)Sc2nc3ccccc3n2[C@H]2CC[C@H](O)CC2)c(Cl)c1 (some centres unmarked) | 5.56 |
| Cc1ccc(NC(=O)C(C)Sc2nc3ccccc3n2C2CCN(C(=O)OC(C)(C)C)CC2)c(Cl)c1 (centres unmarked) [drawing 220] | 6.22 |
| Cc1ccc(NC(=O)C(C)Sc2nc3ccccc3n2CCN2CCN(C(C)c3ccc(F)cc3)CC2)c(Cl)c1 (centres unmarked) | 5.66 |
| Cc1ccc(NC(=O)C(C)Sc2nc3ccccc3n2C2CC[N+](C)(C)CC2)c(Cl)c1 (centres unmarked) | < 4.12 |
| Cc1ccc(NC(=O)C(C)Sc2nc3ccccc3n2CC2CCNCC2)c(Cl)c1 (centres unmarked) | < 4.12 |
| Cc1ccc(NC(=O)C(C)Sc2nc3ccccc3n2-c2ccc(CCO)cc2)c(Cl)c1 (centres unmarked) [drawing 224] | 5.60 |
| Cc1ccc(NC(=O)C(C)Sc2nc3ccccc3n2-c2ccc(CC=O)cc2)c(Cl)c1 (centres unmarked) [drawing 225] | 5.07 |
| Cc1ccc(NC(=O)C(C)Sc2nc3ccccc3n2CC2CCN(Cc3ccc(F)cc3)CC2)c(Cl)c1 (centres unmarked) | 5.93 |

Same assay, conditions: read-out: EC50, suppression of viral cytopathic effect (CPE); CPE

| SMILES | pEC50 |
| --- | --- |
| CCN1CCCC1Cn1c(SC(C)C(=O)Nc2ccc(C)cc2Cl)nc2ccccc21 (centres unmarked) [drawing 215] | 5.26 |

Tested on: MeV-Alaska
Experiment: Antiviral activity of compound analogs against MeV-Alaska (tables 1-5)
Type: cell-based, measles virus
Settings: Measles morbillivirus; Table 5

| pEC50 | SMILES |
| --- | --- |
| < 4.12 | Cc1ccc(NC(=O)C(C)(C)Sc2nc3ccccc3n2-c2ccccc2)c(Cl)c1 [Compound 170] |
| < 4.12 | COc1ccc(-n2c(S(=O)(=O)CC(=O)Nc3ccc(C)cc3Cl)nc3ccccc32)cc1 [Compound 141] |
| < 4.12 | Cc1ccc(NC(=O)C(C)Sc2nc(-c3ccccc3)c(-c3ccccc3)n2Cc2ccc(F)cc2)c(Cl)c1 (centres unmarked) [Compound 128] |
| < 4.12 | Cc1ccc(NC(=O)CSc2nc3cc(C)c(C)cc3n2Cc2ccc(F)cc2)c(Cl)c1 [Compound 144] |
| < 4.12 | Cc1ccc(NC(=O)/C=C/c2nc3ccccc3n2-c2ccccc2)c(Cl)c1 [Compound 162] |
| 5.98 | COc1ccc(-n2c(SCC(=O)Nc3ccc(C)cc3Cl)nc3ccccc32)cc1 [Compound 140] |
| < 4.12 | Cc1ccc(NC(=O)CSc2nc(-c3ccccc3)c(-c3ccccc3)[nH]2)c(Cl)c1 [Compound 142] |
| 5.74 | COc1ccc(-n2c([S+]([O-])C(C)C(=O)Nc3ccc(C)cc3Cl)nc3ccccc32)cc1 (centres unmarked) [Compound 125] |
| 6.36 | COc1ccc(-n2c(SCC(=O)Nc3ncc(Cl)cc3Cl)nc3ccccc32)cc1 [Compound 155] |
| < 3.82 | COc1ccc(-n2c(CCC(=O)Nc3ccc(C)cc3Cl)nc3ccccc32)cc1 [Compound 159] |
| < 4.12 | Cc1ccc(NC(=O)C(C)Sc2nc3ccccc3o2)c(Cl)c1 (centres unmarked) [Compound 151] |
| < 4.12 | CCOC(=O)c1ccc2[nH]c(SC(C)C(=O)Nc3ccc(C)cc3Cl)nc2c1 (centres unmarked) [Compound 126] |
| < 4.12 | C#CCn1c(SC(C)C(=O)Nc2ccc(C)cc2Cl)nc(-c2ccccc2)c1-c1ccccc1 (centres unmarked) [Compound 153] |
| < 5.00 | Cc1cccc(-n2c(SC/C=C/c3ccccc3)nc3ccccc32)c1 [Compound 166] |
| < 4.12 | COc1ccc(-n2c(S(=O)(=O)C(C)C(=O)Nc3ccccc3)nc3ccccc32)cc1 (centres unmarked) [Compound 139] |
| < 4.12 | CCOC(=O)c1ccc2[nH]c(SC(C)C(=O)Nc3ncc(Cl)cc3Cl)nc2c1 (centres unmarked) [Compound 158] |

| SMILES | pEC50 |
| --- | --- |
| COc1ccc(-n2c(SC(C)C(=O)Nc3ccc(C)cc3Cl)nc3cccnc32)cc1 (centres unmarked) [Compound 154] | 5.80 |
| Cc1ccc(NC(=O)C(C)Sc2nc3ccccc3n2Cc2ccccc2)c(Cl)c1 (centres unmarked) [Compound 148] | < 4.12 |

Same assay, conditions: Table 1

| SMILES | pEC50 |
| --- | --- |
| COc1ccc(-n2c(SC(C)C(=O)Nc3ccc(C)cn3)nc3ccccc32)cc1 (centres unmarked) [Compound 24] | 6.30 |
| COc1ccc(-n2c(SC(C)C(=O)Nc3c(Cl)cccc3Cl)nc3ccccc32)cc1 (centres unmarked) [Compound 28] | 5.70 |
| COc1ccc(-n2c(SC(C)C(=O)Nc3cccnc3)nc3ccccc32)cc1 (centres unmarked) [Compound 23] | 5.08 |
| COc1ccc(-n2c(SC(C)C(=O)Nc3ccc(C)cc3)nc3ccccc32)cc1 (centres unmarked) [Compound 49] | 6.15 |
| COc1ccc(-n2c(SC(C)C(=O)NC3CCCCC3)nc3ccccc32)cc1 (centres unmarked) [Compound 9] | < 4.12 |
| COc1ccc(-n2c(SC(C)C(=O)Nc3ccc([N+](=O)[O-])cc3C)nc3ccccc32)cc1 (centres unmarked) [Compound 32] | < 5.03 |
| COc1ccc(-n2c(SC(C)C(=O)Nc3ccc(Cl)c(C)c3)nc3ccccc32)cc1 (centres unmarked) [Compound 40] | 5.17 |
| COc1ccc(-n2c(SC(C)C(=O)Nc3nc(C)cs3)nc3ccccc32)cc1 (centres unmarked) [Compound 35] | 5.44 |
| COc1ccc(-n2c(SC(C)C(=O)Nc3nc(C)c(Br)cc3Br)nc3ccccc32)cc1 (centres unmarked) [Compound 41] | 6.30 |
| COc1ccc(-n2c(SC(C)C(=O)Nc3ccccc3Cl)nc3ccccc32)cc1 (centres unmarked) [Compound 50] | 6.85 |
| COc1ccc(-n2c(SC(C)C(=O)Nc3cccc(C)c3)nc3ccccc32)cc1 (centres unmarked) [Compound 10] | 6.52 |
| COc1ccc(-n2c(SC(C)C(=O)Nc3ncccn3)nc3ccccc32)cc1 (centres unmarked) [Compound 29] | 5.70 |
| COc1ccc(-n2c(SC(C)C(=O)Nc3ncc(C(F)(F)F)cc3Cl)nc3ccccc32)cc1 (centres unmarked) [Compound 3] | 6.40 |
| COc1ccc(-n2c(SC(C)C(=O)Nc3c(C)cccc3Cl)nc3ccccc32)cc1 (centres unmarked) [Compound 39] | 5.41 |

Same assay, conditions: Table 2

| SMILES | pEC50 |
| --- | --- |
| Cc1ccc(NC(=O)C(C)Sc2nc3ccccc3n2-c2ccc(NCCN(C)C)cc2)c(Cl)c1 (centres unmarked) [Compound 59] | 5.38 |
| Cc1ccc(NC(=O)C(C)Sc2nc3ccccc3n2-c2ccccc2)c(Cl)c1 (centres unmarked) [Compound 72] | 7.05 |
| Cc1ccc(NC(=O)C(C)Sc2nc3ccccc3n2-c2ccc(N3CCN(C)CC3)cc2)c(Cl)c1 (centres unmarked) [Compound 70] | 5.70 |
| COc1ccc(Cn2c(SC(C)C(=O)Nc3ccc(C)cc3Cl)nc3ccccc32)cc1 (centres unmarked) [Compound 85] | 6.40 |
| CC(=O)NCCOc1ccc(-n2c(SC(C)C(=O)Nc3ccc(C)cc3Cl)nc3ccccc32)cc1 (centres unmarked) [Compound 61] | < 5.00 |
| COC(=O)COc1ccc(-n2c(SC(C)C(=O)Nc3ccc(C)cc3Cl)nc3ccccc32)cc1 (centres unmarked) [Compound 69] | < 5.03 |
| Cc1ccc(NC(=O)C(C)Sc2nc3ccccc3n2-c2ccc(C(=O)O)cc2)c(Cl)c1 (centres unmarked) [Compound 97] | < 4.12 |
| Cc1ccc(NC(=O)C(C)Sc2nc3ccccc3n2-c2ccc(CN3CCN(C)CC3)cc2)c(Cl)c1 (centres unmarked) [Compound 63] | 5.31 |
| COC(=O)c1ccc(-n2c(SC(C)C(=O)Nc3ccc(C)cc3Cl)nc3ccccc32)cc1 (centres unmarked) [Compound 99] | 5.96 |
| Cc1ccc(NC(=O)C(C)Sc2nc3ccccc3n2-c2ccc(OCC(=O)O)cc2)c(Cl)c1 (centres unmarked) [Compound 68] | < 5.03 |
| Cc1ccc(NC(=O)C(C)Sc2nc3ccccc3n2S(=O)(=O)c2ccccc2)c(Cl)c1 (centres unmarked) [Compound 90] | 7.40 |
| Cc1ccc(NC(=O)C(C)Sc2nc3ccccc3n2-c2ccc(N3CCOCC3)cc2)c(Cl)c1 (centres unmarked) [Compound 84] | 6.52 |
| COc1ccc(-n2c(SC(C)C(=O)Nc3ccc(C)cc3Cl)nc3ccccc32)cc1 (centres unmarked) [Compound 86] | 6.77 |
| Cc1ccc(NC(=O)C(C)Sc2nc3ccccc3n2-c2cccc(CN3CCN(C)CC3)c2)c(Cl)c1 (centres unmarked) [Compound 65] | 5.89 |

Same assay, conditions: Table 3

| SMILES | pEC50 |
| --- | --- |
| COc1cc(OC)cc(-n2c(SC(C)C(=O)Nc3ncc(C)cc3Cl)nc3ccccc32)c1 (centres unmarked) [Compound 118] | 6.10 |
| Cc1cccc(-n2c(SC(C)C(=O)Nc3ncc(C)cc3Cl)nc3ccccc32)c1 (centres unmarked) [Compound 119] | 7.05 |
| Cc1cnc(NC(=O)C(C)Sc2nc3ccccc3n2-c2ccccc2)c(Cl)c1 (centres unmarked) [Compound 109] | 6.89 |
